Reference: ChEMBL document CHEMBL4428049, “Design and synthesis of aminothiazole modulators of the gamma-secretase enzyme” (Bioorg Med Chem Lett, 2016)
≈ marks a conversion by molar mass, not a printed value. Values belong to the compound of their own block, whether it stands above or below them.

How the values were obtained:
[1] = Modulation of gamma-secretase in CHO cells expressing human APP695 assessed as inhibition of Abeta42 level after 20 hrs by FRET HTS assay; assay type: cell-based; details: Cricetulus griseus
[2] = Kinetic solubility in PBS buffer at pH 7.4 by UV/vis absorbance analysis; assay type: physicochemical; details: read-out: Kinetic_solubility
[3] = molecular target: Gamma-secretase; test: Modulation of gamma-secretase in human SH-SY5Y cells overexpressing wild-type human APP751 assessed as inhibition of Abeta42 level after 24 hrs by ELISA; assay type: cell-based
[4] = Lipophilicity, log D of the compound; assay type: physicochemical; details: octanol/water
[5] = Stability in human liver microsomes assessed as compound remaining at 1 uM incubated for 30 mins; assay type: ADME, Microsome; details: read-out: Stability
[6] = Stability in rat liver microsomes assessed as compound remaining at 1 uM incubated for 30 mins; assay type: ADME, Microsome; details: read-out: Stability
[7] = Stability in mouse liver microsomes assessed as compound remaining at 1 uM incubated for 30 mins; assay type: ADME, Microsome; details: read-out: Stability
[8] = molecular target: Cytochrome P450 3A4 (Homo sapiens, UniProt P08684); test: Inhibition of recombinant CYP3A4 (unknown origin) by fluorescence-based assay; assay type: ADME
Cytochrome P450 3A4, sequence (P08684 whole entry): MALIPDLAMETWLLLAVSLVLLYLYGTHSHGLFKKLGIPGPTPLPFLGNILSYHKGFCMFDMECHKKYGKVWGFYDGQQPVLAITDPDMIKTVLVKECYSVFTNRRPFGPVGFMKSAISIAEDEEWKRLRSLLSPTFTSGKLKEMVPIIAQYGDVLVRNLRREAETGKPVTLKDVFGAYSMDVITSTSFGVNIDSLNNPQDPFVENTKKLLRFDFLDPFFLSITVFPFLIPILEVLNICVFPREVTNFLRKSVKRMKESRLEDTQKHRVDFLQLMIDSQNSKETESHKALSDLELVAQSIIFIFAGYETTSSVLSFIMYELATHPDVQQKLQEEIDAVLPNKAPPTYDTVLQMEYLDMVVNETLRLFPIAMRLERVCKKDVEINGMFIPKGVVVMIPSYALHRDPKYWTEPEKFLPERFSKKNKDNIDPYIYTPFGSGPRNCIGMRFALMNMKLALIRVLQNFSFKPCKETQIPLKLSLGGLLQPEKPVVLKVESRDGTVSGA

[9] = molecular target: T1, Cytochrome P450 1A2 (Homo sapiens, UniProt P05177); test: Inhibition of recombinant CYP1A2 (unknown origin) by fluorescence-based assay; assay type: ADME
T1 sequence (P05177 whole entry): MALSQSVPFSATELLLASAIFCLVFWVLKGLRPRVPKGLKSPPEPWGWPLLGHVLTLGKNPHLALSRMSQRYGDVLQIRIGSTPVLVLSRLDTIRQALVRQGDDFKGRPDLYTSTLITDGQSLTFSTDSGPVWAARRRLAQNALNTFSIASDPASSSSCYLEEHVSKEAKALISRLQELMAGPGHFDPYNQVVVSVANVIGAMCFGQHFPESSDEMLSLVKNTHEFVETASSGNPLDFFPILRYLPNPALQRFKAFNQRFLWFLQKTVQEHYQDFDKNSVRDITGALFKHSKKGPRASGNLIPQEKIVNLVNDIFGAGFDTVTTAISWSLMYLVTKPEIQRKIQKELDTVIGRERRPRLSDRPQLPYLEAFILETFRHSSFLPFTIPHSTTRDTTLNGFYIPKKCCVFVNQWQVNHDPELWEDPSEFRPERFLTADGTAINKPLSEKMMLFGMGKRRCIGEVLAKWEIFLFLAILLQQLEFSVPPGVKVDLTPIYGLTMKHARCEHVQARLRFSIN

[10] = molecular target: Cytochrome P450 2C9 (Homo sapiens, UniProt P11712); test: Inhibition of recombinant CYP2C9 (unknown origin) by fluorescence-based assay; assay type: ADME
Cytochrome P450 2C9, sequence (P11712 whole entry): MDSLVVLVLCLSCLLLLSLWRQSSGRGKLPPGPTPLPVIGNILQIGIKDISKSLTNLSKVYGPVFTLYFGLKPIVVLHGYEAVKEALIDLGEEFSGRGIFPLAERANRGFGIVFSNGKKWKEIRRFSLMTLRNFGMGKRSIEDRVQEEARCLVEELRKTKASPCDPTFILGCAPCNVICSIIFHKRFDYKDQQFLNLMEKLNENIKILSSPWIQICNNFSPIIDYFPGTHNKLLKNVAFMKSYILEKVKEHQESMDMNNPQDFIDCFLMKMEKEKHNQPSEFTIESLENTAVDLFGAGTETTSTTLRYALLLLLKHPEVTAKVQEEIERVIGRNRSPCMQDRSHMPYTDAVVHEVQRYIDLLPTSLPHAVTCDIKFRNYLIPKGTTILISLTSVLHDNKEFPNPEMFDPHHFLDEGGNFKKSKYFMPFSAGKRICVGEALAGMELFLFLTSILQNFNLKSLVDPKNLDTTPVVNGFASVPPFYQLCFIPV

[11] = molecular target: Cytochrome P450 2C19 (Homo sapiens, UniProt P33261); test: Inhibition of recombinant CYP2C19 (unknown origin) by fluorescence-based assay; assay type: ADME
Cytochrome P450 2C19, sequence (P33261 whole entry): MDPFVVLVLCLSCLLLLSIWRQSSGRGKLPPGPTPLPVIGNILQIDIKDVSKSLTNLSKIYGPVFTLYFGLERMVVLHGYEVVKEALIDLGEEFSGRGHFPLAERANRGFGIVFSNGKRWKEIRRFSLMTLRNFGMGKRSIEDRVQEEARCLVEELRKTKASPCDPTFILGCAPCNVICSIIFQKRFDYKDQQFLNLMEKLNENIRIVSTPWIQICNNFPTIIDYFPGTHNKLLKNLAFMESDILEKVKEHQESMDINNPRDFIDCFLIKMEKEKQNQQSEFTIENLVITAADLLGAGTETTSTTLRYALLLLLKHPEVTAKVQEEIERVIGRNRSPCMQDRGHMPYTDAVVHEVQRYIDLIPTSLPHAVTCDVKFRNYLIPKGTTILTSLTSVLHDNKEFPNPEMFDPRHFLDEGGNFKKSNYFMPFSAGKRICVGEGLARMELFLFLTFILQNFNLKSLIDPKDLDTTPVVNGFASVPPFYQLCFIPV

[12] = molecular target: Cytochrome P450 2D6 (Homo sapiens, UniProt P10635); test: Inhibition of recombinant CYP2D6 (unknown origin) by fluorescence-based assay; assay type: ADME
Cytochrome P450 2D6, sequence (P10635 whole entry): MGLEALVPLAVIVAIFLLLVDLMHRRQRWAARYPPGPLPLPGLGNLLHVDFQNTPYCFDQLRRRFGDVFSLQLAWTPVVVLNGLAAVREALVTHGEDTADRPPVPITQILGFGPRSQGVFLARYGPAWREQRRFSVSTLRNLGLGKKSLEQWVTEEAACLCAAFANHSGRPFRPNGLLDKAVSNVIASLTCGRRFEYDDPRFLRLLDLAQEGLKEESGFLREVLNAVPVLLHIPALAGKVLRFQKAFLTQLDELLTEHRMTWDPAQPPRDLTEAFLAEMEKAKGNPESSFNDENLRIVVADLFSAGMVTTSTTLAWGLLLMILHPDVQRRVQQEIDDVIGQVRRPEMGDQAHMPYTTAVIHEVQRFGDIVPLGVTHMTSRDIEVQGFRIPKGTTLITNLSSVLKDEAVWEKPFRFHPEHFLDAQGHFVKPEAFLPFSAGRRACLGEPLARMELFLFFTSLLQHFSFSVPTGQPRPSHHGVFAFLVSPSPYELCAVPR

[13] = molecular target: Voltage-gated inwardly rectifying potassium channel KCNH2 (Homo sapiens, UniProt Q12809); test: Inhibition of human ERG channel expressed in HEK293 cells by patch-clamp assay; assay type: cell-based
Voltage-gated inwardly rectifying potassium channel KCNH2, sequence (Q12809 whole entry): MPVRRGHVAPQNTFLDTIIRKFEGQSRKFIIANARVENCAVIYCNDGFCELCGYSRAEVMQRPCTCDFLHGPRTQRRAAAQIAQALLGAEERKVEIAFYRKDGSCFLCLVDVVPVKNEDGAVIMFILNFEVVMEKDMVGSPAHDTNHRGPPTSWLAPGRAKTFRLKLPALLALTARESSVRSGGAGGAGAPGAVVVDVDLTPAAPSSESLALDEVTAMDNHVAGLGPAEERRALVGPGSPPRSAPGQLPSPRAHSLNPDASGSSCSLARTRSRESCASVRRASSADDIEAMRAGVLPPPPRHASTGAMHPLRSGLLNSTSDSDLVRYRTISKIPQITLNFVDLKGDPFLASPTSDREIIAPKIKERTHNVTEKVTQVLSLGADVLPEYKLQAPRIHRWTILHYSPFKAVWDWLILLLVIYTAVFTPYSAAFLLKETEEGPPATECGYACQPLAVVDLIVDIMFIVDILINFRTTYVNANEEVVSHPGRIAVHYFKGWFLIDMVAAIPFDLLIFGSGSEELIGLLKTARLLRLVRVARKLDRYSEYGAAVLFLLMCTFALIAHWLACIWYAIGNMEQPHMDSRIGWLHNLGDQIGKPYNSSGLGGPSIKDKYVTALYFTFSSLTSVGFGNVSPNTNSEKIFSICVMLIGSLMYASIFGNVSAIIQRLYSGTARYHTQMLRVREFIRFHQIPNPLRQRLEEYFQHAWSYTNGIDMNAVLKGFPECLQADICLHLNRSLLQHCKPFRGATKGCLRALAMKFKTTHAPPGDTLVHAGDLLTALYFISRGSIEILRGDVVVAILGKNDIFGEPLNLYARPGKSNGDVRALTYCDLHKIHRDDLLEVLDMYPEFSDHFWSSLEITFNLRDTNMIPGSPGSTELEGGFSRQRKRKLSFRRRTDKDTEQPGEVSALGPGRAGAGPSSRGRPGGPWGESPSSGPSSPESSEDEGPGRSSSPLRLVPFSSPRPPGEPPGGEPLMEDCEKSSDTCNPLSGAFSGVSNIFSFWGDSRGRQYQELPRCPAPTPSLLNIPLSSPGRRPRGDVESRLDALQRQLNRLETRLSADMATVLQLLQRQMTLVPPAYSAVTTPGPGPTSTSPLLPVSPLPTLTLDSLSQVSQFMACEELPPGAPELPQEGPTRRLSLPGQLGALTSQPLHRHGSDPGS

[14] = Apparent permeability in MDCK cells expressing MDR1; assay type: ADME, cell-based, Canis lupus familiaris; details: dog
[15] = Efflux ratio of permeability from basolateral to apical over apical to basolateral side of MDCK cells expressing MDR1; assay type: ADME, cell-based, Canis lupus familiaris; details: dog
[16] = Protein binding in plasma (unknown origin); assay type: ADME, cell-free; details: read-out: PPB (converted)
[17] = Cmax in CD1 mouse at 1 mg/kg, iv administered as single dose by HPLC/MS/MS analysis; assay type: ADME, organism-based; set-up: dose 1 mg/kg, route intravenous; details: in vivo
[18] = Tmax in CD1 mouse at 1 mg/kg, iv administered as single dose by HPLC/MS/MS analysis; assay type: ADME, organism-based; details: in vivo
[19] = Half life in CD1 mouse at 1 mg/kg, iv administered as single dose by HPLC/MS/MS analysis; assay type: ADME, organism-based; details: in vivo
[20] = AUC (last) in CD1 mouse at 1 mg/kg, iv administered as single dose by HPLC/MS/MS analysis; assay type: ADME, organism-based; set-up: dose 1 mg/kg, time 0 - last, route intravenous; details: in vivo
[21] = AUC (infinity) in CD1 mouse at 1 mg/kg, iv administered as single dose by HPLC/MS/MS analysis; assay type: ADME, organism-based; set-up: dose 1 mg/kg, route intravenous, time infinity; details: in vivo
[22] = Clearance in CD1 mouse at 1 mg/kg, iv administered as single dose by HPLC/MS/MS analysis; assay type: ADME, organism-based; details: in vivo
[23] = Volume of distribution at steady state in CD1 mouse at 1 mg/kg, iv administered as single dose by HPLC/MS/MS analysis; assay type: ADME, organism-based; details: in vivo, read-out: Vdss
[24] = Ratio of drug level in brain to plasma in CD1 mouse at 1 mg/kg, iv administered as single dose measured after 1 hr by HPLC/MS/MS analysis; assay type: ADME, organism-based; details: read-out: BPR
[25] = Cmax in CD1 mouse at 5 mg/kg administered via oral gavage by HPLC/MS/MS analysis; assay type: ADME, organism-based; set-up: dose 5 mg/kg, route oral; details: in vivo
[26] = Tmax in CD1 mouse at 5 mg/kg administered via oral gavage by HPLC/MS/MS analysis; assay type: ADME, organism-based; details: in vivo
[27] = Half life in CD1 mouse at 5 mg/kg administered via oral gavage by HPLC/MS/MS analysis; assay type: ADME, organism-based; details: in vivo
[28] = AUC (last) in CD1 mouse at 5 mg/kg administered via oral gavage by HPLC/MS/MS analysis; assay type: ADME, organism-based; set-up: dose 5 mg/kg, time 0 - last, route oral; details: in vivo
[29] = AUC (infinity) in CD1 mouse at 5 mg/kg administered via oral gavage by HPLC/MS/MS analysis; assay type: ADME, organism-based; set-up: dose 5 mg/kg, time infinity, route oral; details: in vivo
[30] = Ratio of drug level in brain to plasma in CD1 mouse at 5 mg/kg administered via oral gavage by HPLC/MS/MS analysis; assay type: ADME, organism-based; details: read-out: BPR
[31] = Ratio of drug level in brain to plasma in CD1 mouse at 5 mg/kg administered via oral gavage measured after 4 hrs by HPLC/MS/MS analysis; assay type: ADME, organism-based; details: read-out: BPR
[32] = Ratio of drug level in brain to plasma in CD1 mouse at 5 mg/kg administered via oral gavage measured after 8 hrs by HPLC/MS/MS analysis; assay type: ADME, organism-based; details: read-out: BPR
[33] = Clearance in CD1 mouse at 1 mg/kg administered intravenously by HPLC/MS/MS analysis relative to hepatic blood flow; details: in vivo, iv

- IC50 [1]: 10 nM
SMILES: CCc1cc(Nc2nc(-c3ccc(-n4cnc(C)c4)c(F)c3)cs2)c(C)cc1C

- solubility kinetic [2]: < 1.6 µM
- IC50 [3]: 41 nM
SMILES: CCn1nc2c(c1Nc1nc(-c3ccc(-n4cnc(C)c4)c(F)c3)cs1)CCC2

- solubility kinetic [2]: 4.7 µM (≈ 2 µg/mL)
- IC50 [3]: 63 nM
- logD [4]: 3.64
- remaining at 0.5 h, 1 µM [5]: 51%
- remaining at 0.5 h, 1 µM [6]: 64%
- remaining at 0.5 h, 1 µM [7]: 95%
- IC50 [8]: 16 µM
- IC50 [9]: > 100 µM
- IC50 [10]: > 100 µM
- IC50 [11]: 82 µM
- IC50 [12]: > 100 µM
- Papp [14]: 0.97 ×10⁻⁶ cm/s
- efflux ratio [15]: 1.6
- fraction unbound [16]: 0.006
- Cmax [17]: 161 ng/mL
- Tmax [18]: 4.98 min
- half-life [19]: 144 min
- AUC(0-t) [20]: 335 ng·h/mL
- AUC(0-inf) [21]: 498 ng·h/mL
- clearance [22]: 33.5 mL/min/kg
- Vd [23]: 7.15 L/kg
- Kp at 1 h [24]: 0.64
- Cmax [25]: 1000 ng/mL
- Tmax [26]: 1 h
- half-life [27]: 360 min
- AUC(0-t) [28]: 5390 ng·h/mL
- AUC(0-inf) [29]: 5720 ng·h/mL
- Kp [30]: 0.5
- Kp at 4 h [31]: 0.53
- Kp at 8 h [32]: 0.59
- CL [33]: 40%
SMILES: CCn1nc(C(C)(C)C)cc1Nc1nc(-c2ccc(-n3cnc(C)c3)c(F)c2)cs1
- IC50 [13]: > 30 µM

- IC50 [3]: 175 nM
SMILES: Cc1cn(-c2ccc(-c3csc(Nc4c5c(nn4C(C)(C)C)CCC5)n3)cc2F)cn1

- IC50 [3]: 294 nM
SMILES: Cc1cn(-c2ccc(-c3csc(Nc4cc(C(C)(C)C)nn4C)n3)cc2F)cn1

- IC50 [3]: > 1000 nM
SMILES: CCn1nc2c(c1N(C)c1nc(-c3ccc(-n4cnc(C)c4)c(F)c3)cs1)CCCC2

- solubility kinetic [2]: < 1.6 µM
- IC50 [3]: 110 nM
SMILES: CCn1nc(C(F)(F)F)cc1Nc1nc(-c2ccc(-n3cnc(C)c3)c(F)c2)cs1

- solubility kinetic [2]: 8.1 µM (≈ 4.1 µg/mL)
- IC50 [3]: 475 nM
SMILES: Cc1cn(-c2ccc(-c3csc(Nc4c5c(nn4CCN4CCCCC4)CCCC5)n3)cc2F)cn1

- IC50 [3]: 179 nM
SMILES: Cc1cn(-c2ccc(-c3csc(Nc4c5c(nn4CC(F)(F)F)CCCC5)n3)cc2F)cn1

- solubility kinetic [2]: 15 µM (≈ 6.58 µg/mL)
- IC50 [3]: 362 nM
SMILES: Cc1cn(-c2ccc(-c3csc(Nc4c5c(nn4CCO)CCCC5)n3)cc2F)cn1

- IC50 [3]: 114 nM
SMILES: CCn1nc2c(c1Nc1nc(-c3ccc(-n4cnc(C)c4)c(F)c3)cs1)CCCCC2

- IC50 [3]: > 1000 nM
SMILES: Cc1cn(-c2ccc(-c3csc(Nc4c5c(nn4C)CCC5)n3)cc2F)cn1

- IC50 [3]: 216 nM
SMILES: Cc1cn(-c2ccc(-c3csc(Nc4c5c(nn4C(C)(C)C)CCCC5)n3)cc2F)cn1

- solubility kinetic [2]: 2.6 µM (≈ 1.17 µg/mL)
- IC50 [3]: 49 nM
SMILES: CCn1nc2c(c1Nc1nc(-c3ccc(-n4cnc(C)c4)c(F)c3)cs1)C(C)CC2(C)C (stereo not given)

- IC50 [3]: 394 nM
SMILES: CCn1nc(C(C)C)cc1Nc1nc(-c2ccc(-n3cnc(C)c3)c(F)c2)cs1

- IC50 [3]: 148 nM
SMILES: CCCn1nc2c(c1Nc1nc(-c3ccc(-n4cnc(C)c4)c(F)c3)cs1)CCCC2

- solubility kinetic [2]: < 1.6 µM
- IC50 [3]: 112 nM
SMILES: Cc1cn(-c2ccc(-c3csc(Nc4c5c(nn4C4CCC4)CCCC5)n3)cc2F)cn1

- IC50 [3]: 225 nM
SMILES: Cc1cn(-c2ccc(-c3csc(Nc4c5c(nn4C4CCCC4)CCCC5)n3)cc2F)cn1

- solubility kinetic [2]: < 1.6 µM
- IC50 [3]: 55 nM
SMILES: Cc1cn(-c2ccc(-c3csc(Nc4c5c(nn4CC(C)(C)O)CCCC5)n3)cc2F)cn1

SMILES: CCn1nc2c(c1Nc1nc(-c3ccc(-n4cnc(C)c4)c(F)c3)cs1)CCCC2
- IC50 [3]: 163 nM

- IC50 [3]: 771 nM
SMILES: Cc1cn(-c2ccc(-c3csc(Nc4cc(C(F)(F)F)nn4CC(F)(F)F)n3)cc2F)cn1

- IC50 [3]: 280 nM
SMILES: Cc1cn(-c2ccc(-c3csc(Nc4c5c(nn4C4CCCCC4)CCCC5)n3)cc2F)cn1
